# Results published in US9784746B2, “Method for studying transport of an agent across a bilayer membrane in bioanalytical sensor applications” (Bio-Rad Laboratories, Inc., priority 2008, dated 2017).
# Assays:
# [1] = Membrane transport of ions across gramicidin-containing liposomes (SPR); assay type: physicochemical; details: gramicidin incorporated for K+ co-transport; FIG. 7
# Text: Information of this type is of high relevance in studies on how, for example, drugs influence the permeability of cell-membranes. Both passive and membrane-protein mediated transfer of uncharged solutes is of high biological and pharmaceutical relevance. However, for a method like this to be generically applicable for any type of membrane transport reaction, also ion translocation should be possible to measure, which is today typically measured using patch-clamp based assays. FIG. 7 illustrates membrane transport of iodide (˜10 s) and chloride (˜200 s) ions, in excellent agreement with literature data. Note that gramicidin was incorporated into the liposomes in order to ensure co-transport of counter ions (K+), thus prohibiting the establishment of an electrostatic transmembrane potential that would otherwise restrict the unhindered transport of anions.
# [2] = Melittin pore mediated sucrose uptake into tethered liposomes (SPR refractive index); assay type: physicochemical
# Experimental: After tethering of NeutrAvidin/Biotin-DNA the following injections were made in sequential order; 0.1 M sucrose, 2 mg/ml cholesterol-DNA tagged POPC-liposomes, 0.1 M sucrose, 40 μM melittin, 0.1 M sucrose, 0.1 M sucrose, 0.1 M sucrose. All samples were dissolved in HEPES-2.
# A simple method for real-time and label-free uptake measurements of analytes across membranes at a biosensor surface would be of great value when investigating for example membrane transporters. Here we wanted to test if it was possible to measure the uptake of an analyte, sucrose, through the melittin pore by simply detecting the change in refractive index of the solution inside the liposome caused by the analyte as it is taken up.
# Adding sucrose changes the refractive index of the solution in the detection volume, i.e. the volume corresponding to the evanescent field above the sensor surface, which is manifested as a shift in RU. […]
# The amplitude of the uptake decrease from S3 to S5, which is explained by a decreasing number of liposomes having pores. […] The expected RU of the 7400 sucrose molecules (0.1 M) inside the liposome can be calculated from the obtained response of immobilizing the liposome itself (RU=6790). […] Since only ˜85% of the liposomes have pores the expected value is 480/0.85≈560 RU, which is in good agreement with the measured response of 530 RU from the S3 injection.
# [3] = Cyclodextrin removal of cholesterol from liposome bilayer (SPR); details: after seven injections; start 40% cholesterol
# Text: (§1) 70 nm liposomes containing 40% cholesterol were provided in accordance with Example 1. Binding of the liposomes followed by repeated injection cyclodextrin, which removes cholesterol from the lipid bilyaer of the liposomes is shown in FIG. 6a. The SPR response is proportional to the interfacial refractive index, which makes it possible to quantify the removal of cholesterol. After seven injections of cyclodextrin, the cholesterol content was reduced to 14%.
# [4] = Melittin binding to tethered POPC liposomes (Biacore SPR)
# Experimental: Liposomes were made by first evaporating the solvent, chloroform, from the POPC lipids using a flow of nitrogen gas. The dried lipids were then kept under the flow of nitrogen gas for at least one hour after which HEPES-2 was added to yield a 4 mg/ml concentration of POPC. The dissolved POPC lipids were vortexed for at least 30 min to yield multi-laminar liposomes. Uni-laminar liposomes were produced using a mini extruder and polycarbonate membranes with pore size of 50 nm from Avanti Polar Lipids® with a 50 nm pore size. […] The liposomes were stored under nitrogen gas at 4° C. until use (within 2 days).
# A mixture (300 μl) of HS-PEG (200 μg/ml) and HS-PEG-Biotin (20 μg/ml), dissolved in HEPES-2, were injected over the Biacore® Au sensor chip at a flow rate of 5 μl/min. Then a mixture (150 μl) of NeutrAvidin (40 μg/ml) and Biotin-DNA (0.7 μM) was injected and bound to HS-PEG-Biotin at the surface.
# POPC liposomes (2 mg/ml, in HEPES-2) containing cholesterol-DNA tags (3 DNA tags per liposome) were injected at a flow rate of 5 μl/min. The end of the DNA-part of the cholesterol-DNA tag is single-stranded and complementary in sequence to the Biotin-DNA at the surface enabling tethering of the liposomes to the sensor surface.
# The reversible binding of melittin was measured in the Biacore® instrument directly after the tethering of POPC liposomes was finished. Melittin solutions at a concentration of 0.5-40 μM in HEPES-2 were injected in sequence. During injection the melittin molecules bind to the liposomes and after the injection is terminated, running buffer (HEPES-2) flows over the surface and melittin dissociates. After the dissociation was complete a new melittin solution of different concentration was injected.
# Melittin solutions of various concentrations (0.5-40 μM) were injected over the bound liposomes in the Biacore® instrument at 5 μl/min. The change in response (RU) as a function of time (t) was fitted to RU=RU0+RU1*(1−exp(−t/τ1))+RU2*(1−exp(−t/τ2)). However, the change in RU during the injection of 0.5 μM melittin could be described using only one exponential (i.e. RU2=0). It is known that high concentrations of melittin can rupture cells and liposomes. Unspecific binding (i.e. binding to the biosensor surface without liposomes) of melittin was small, less than 5% of the binding of melittin to the liposome membrane surface (data not shown).
# [5] = Glycerol transport across liposome membrane versus cholesterol content (SPR); assay type: physicochemical
# Experimental: At first 70 nm liposomes were provided in accordance with Example 1. […] Also shown in FIG. 4b (dashed curve) is an identical rinsing step without immobilized liposomes, illustrating that the time constant of the fluidic exchange is faster than 100 ms, which is sufficient to temporally resolve these transport measurements. The rate of glycerol release was examined in a temperature interval from 8 to 22° C. […] In agreement with expectations, the rate of transport across the lipid membrane increases with increasing temperature, and Arrhenius plots display a linear dependence between ln(1/) and 1/T, yielding activation energies in excellent agreement with literature data for the three solutes (glycerol, urea and hydroxyurea) investigated, see FIG. 5b.
# as §1, with “After seven injections of cyclodextrin, the cholesterol content was reduced to 14%.” left out
# Each injection of cyclodextrin (FIG. 6a) was followed by an injection pulse of glycerol, which enabled the time constant of glycerol transport versus cholesterol content to be quantified, ranging from around 7 s at 40% cholesterol to 1 s at 14% cholesterol, see FIG. 6b. […]
# [6] = outer membrane, fast phase, fit of k1 vs [Mel]B, 0.5-40 μM, HEPES-2
molecule,measurement,setting,value
Cl [chloride],membrane transport time,[1],~200 s
OC[C@H]1O[C@@](CO)(O[C@H]2O[C@H](CO)[C@@H](O)[C@H](O)[C@H]2O)[C@@H](O)[C@@H]1O [sucrose],decay time for uptake of sucrose τ3,"[2]; 0.1 M sucrose after 40 μM melittin (S3), estimated from FIG. 3",≈ 20 sec
same,number of sucrose molecules that cross the membrane per liposome,"[2]; in ˜20 sec, inside concentration 0.1 M",~7400
I [iodide],membrane transport time,[1],~10 s
cyclodextrin,cholesterol content of liposomes after cyclodextrin,[3],14%
CC[C@H](C)[C@H](NC(=O)CN)C(=O)NCC(=O)N[C@@H](C)C(=O)N[C@H](C(=O)N[C@@H](CC(C)C)C(=O)N[C@@H](CCCCN)C(=O)N[C@H](C(=O)N[C@@H](CC(C)C)C(=O)N[C@H](C(=O)N[C@H](C(=O)NCC(=O)N[C@@H](CC(C)C)C(=O)N1CCC[C@H]1C(=O)N[C@@H](C)C(=O)N[C@@H](CC(C)C)C(=O)N[C@H](C(=O)N[C@@H](CO)C(=O)N[C@@H](Cc1c[nH]c2ccccc12)C(=O)N[C@H](C(=O)N[C@@H](CCCCN)C(=O)N[C@@H](CCCNC(=N)N)C(=O)N[C@@H](CCCCN)C(=O)N[C@@H](CCCNC(=N)N)C(=O)N[C@@H](CCC(N)=O)C(=O)N[C@@H](CCC(N)=O)C(N)=O)[C@@H](C)CC)[C@@H](C)CC)[C@@H](C)O)[C@@H](C)O)C(C)C)C(C)C [melittin],"k+2 (apparent, slower kinetic phase, binding to inner membrane)",[4]; linear fit of k2 vs [Mel]B,56 M⁻¹ s⁻¹
same,"k−2 (slower kinetic phase, binding to inner membrane)",[4]; linear fit of k2 vs [Mel]B,0.0046 s⁻¹
same,microscopic off-rate k−1 of melittin with the liposome membrane surface,[4]; [6],0.032 s⁻¹
same,microscopic on-rate k+1 of melittin with the liposome membrane surface,[4]; [6],3684 M⁻¹ s⁻¹
OCC(O)CO [glycerol],time constant of glycerol transport,[5]; 14% cholesterol,~1 s
same,time constant of glycerol transport,[5]; 40% cholesterol,around 7 s
